According to PMC7162861, “Synthesis, cytotoxicity, pharmacokinetic profile, binding with DNA and BSA of new imidazo[1,2-a]pyrazine-benzo[d]imidazol-5-yl hybrids” (Scientific Reports, 2020):
Where two headings read alike, the source gives them in different places.

Legend:
K-562 = test: NCI cytotoxicity screen, Leukemia panel; format: cell-based
Method: (§1) Cytotoxicity was performed at National Cancer Institute (NCI), Bethesda, USA as per their protocols.

RPMI-8226 = test: NCI cytotoxicity screen, Leukemia panel; format: cell-based; conditions: for GI50: RPMI-8226, RPMI-8226
Method: as §1

COLO 205 = test: NCI cytotoxicity screen, Colon Cancer panel; format: cell-based
Method: as §1

HCT-116 = test: NCI cytotoxicity screen, Colon Cancer panel; format: cell-based; conditions: Homo sapiens, five dose 0.01–100 µM
Method: as §1

HCT-15 = test: NCI cytotoxicity screen, Colon Cancer panel; format: cell-based; conditions: Homo sapiens
Method: as §1

HT29 = test: NCI cytotoxicity screen, Colon Cancer panel; format: cell-based
Method: as §1

SF-268 = test: NCI cytotoxicity screen, CNS Cancer panel; format: cell-based
Method: as §1

SF-295 = test: NCI cytotoxicity screen, CNS Cancer panel; format: cell-based
Method: as §1

SF-539 = test: NCI cytotoxicity screen, CNS Cancer panel; format: cell-based
Method: as §1

SNB-19 = test: NCI cytotoxicity screen, CNS Cancer panel; format: cell-based
Method: as §1

SNB-75 = test: NCI cytotoxicity screen, CNS Cancer panel; format: cell-based
Method: as §1

U251 = test: NCI cytotoxicity screen, CNS Cancer panel; format: cell-based
Method: as §1

MALME-3M = test: NCI cytotoxicity screen, Melanoma panel; format: cell-based
Method: as §1

MDA-MB-435 = test: NCI cytotoxicity screen, Melanoma panel; format: cell-based; conditions: MDA-MB-435
Method: as §1

SK-MEL-28 = test: NCI cytotoxicity screen, Melanoma panel; format: cell-based
Method: as §1

SK-MEL-2 = test: NCI cytotoxicity screen, Melanoma panel; format: cell-based
Method: as §1

SK-MEL-5 = test: NCI cytotoxicity screen, Melanoma panel; format: cell-based
Method: as §1

UACC-257 = test: NCI cytotoxicity screen, Melanoma panel; format: cell-based
Method: as §1

[1] = tested on: NCI-60 cancer cell panels; test: NCI cytotoxicity screen, full panel summary; format: cell-based
Method: as §1

CT-DNA = CT-DNA binding, fluorescence quenching (Stern-Volmer, Scatchard); design: species or system calf
Method: (§2) The stock solution of compound 31 (10^−3 M) was prepared in DMSO and diluted to required concentration using appropriate buffer solution. Calf thymus (CT)-DNA was dissolved in 10 mM Tris buffer of pH 7.4 having 1 mM EDTA at room temperature. The purity of DNA solution was determined by using the ratio of absorbance at 260 nm and 280 nm wavelength. Extinction coefficient 6600 M^−1 cm^−1 of single nucleotide at 260 nm was used to determine the concentration of the DNA solution. The stock solution of BSA (10^−3 M) was prepared in distilled water and stored at 4 °C temperature.
In the case of BSA experiments, fluorescence emission spectra were performed for BSA (10 µM) with increasing concentration of compound 31 (0–10 µM) in phosphate buffer (pH 7.4) at room temperature upon excitation at 280 nm. The dissociation constant of compound 31 was estimated by titrating the complex of compound 31 (10 µM) and BSA (10 µM) with increasing concentration of ibuprofen (0–15 µM), upon excitation at 280 nm. All emission spectra were recorded in the range of 200 to 800 nm.
(§3) Binding parameters KSV and Kq were calculated using the Stern-Volmer equation (Eq. 2):2 F0/F=1+Ksv[Analyte]=1+Kqτo[Analyte]
(§4) Fo denotes the emission intensity of derivative 31/BSA free from analyte (CT-DNA/ derivative 31), whereas, F denotes the emission intensity of derivative 31/BSA bound with analyte (CT-DNA/derivative 31). The values of KSV and Kq were determined from the plot of Fo/F vs. [analyte].
(§5) The binding parameters Kbin and n were determined using Scatchard equation (Eq. 3):3 logF0−F/F=logKbin+nlog[analyte]
(§6) Fo and F denote similar factors as those of the above Stern-Volmer equation. The values of Kbin and n were determined from the plot of log (Fo − F)/F vs. log [analyte].

[2] = target: bovine serum albumin (BSA) (Bos taurus, UniProt P02769); test: BSA binding, fluorescence quenching (Stern-Volmer, Scatchard)
Method: as §2
[…] The dissociation constant of compound 31 was estimated by titrating the complex of compound 31 (10 µM) and BSA (10 µM) with increasing concentration of ibuprofen (0–15 µM), upon excitation at 280 nm. All emission spectra were recorded in the range of 200 to 800 nm.
as §3, §4, §5, §6

[3] = Homo sapiens, five dose 0.01–100 µM
[4] = Homo sapiens, five dose 0.01–100 µM, read-out: LC50 (the source's name)

Chain of bovine serum albumin (BSA) (P02769 25-607): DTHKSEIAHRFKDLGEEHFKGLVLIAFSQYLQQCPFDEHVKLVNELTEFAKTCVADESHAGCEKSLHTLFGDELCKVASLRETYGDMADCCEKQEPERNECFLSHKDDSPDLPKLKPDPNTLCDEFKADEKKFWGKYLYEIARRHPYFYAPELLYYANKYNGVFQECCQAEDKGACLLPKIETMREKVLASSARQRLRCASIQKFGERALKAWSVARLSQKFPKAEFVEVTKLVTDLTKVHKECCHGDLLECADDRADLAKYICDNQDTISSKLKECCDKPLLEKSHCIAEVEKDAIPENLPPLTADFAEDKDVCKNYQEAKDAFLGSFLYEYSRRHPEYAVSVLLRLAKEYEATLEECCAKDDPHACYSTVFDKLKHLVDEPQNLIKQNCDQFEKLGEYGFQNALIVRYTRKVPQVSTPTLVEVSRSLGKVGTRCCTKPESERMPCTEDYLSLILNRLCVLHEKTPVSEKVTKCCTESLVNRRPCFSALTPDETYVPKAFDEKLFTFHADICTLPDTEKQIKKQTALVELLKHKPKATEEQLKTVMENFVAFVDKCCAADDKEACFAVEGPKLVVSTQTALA

Q: Which results are given for `c1cn2cc(-c3ccc4ncn(C5CCCCC5)c4c3)nc(-c3ccc4c(c3)ncn4C3CCCCC3)c2n1` [Compound 31, 8-(1-cyclohexyl-1H-benzo[d]imidazol-5-yl)-6-(1-cyclohexyl-1H-benzo[d]imidazol-6-yl)imidazo[1,2-a]pyrazine]?
A: GI50 (K-562; Homo sapiens, K562): 2570 nM; CC50 (K-562; Homo sapiens, K562, K-562, five dose 0.01–100 µM, read-out: LC50 (the source's name)): > 1000 nM; TGI (K-562; K-562, five dose 0.01–100 µM): >1000 nM; GI50 (RPMI-8226; Homo sapiens, five dose): 806 nM; GI50 (RPMI-8226; [3]): 800 nM; CC50 (RPMI-8226; Homo sapiens, RPMI-8226, five dose 0.01–100 µM, read-out: LC50 (the source's name)): > 1000 nM; TGI (RPMI-8226; RPMI-8226, five dose 0.01–100 µM): 3990 nM; GI50 (COLO 205; Homo sapiens): 1930 nM; LC50 (COLO 205; [3]): 7440 nM; TGI (COLO 205; five dose 0.01–100 µM): 3790 nM; GI50 (HCT-116): 1700 nM; GI50 (HCT-15): 2070 nM; TGI (HT29; HT29, five dose 0.01–100 µM): 5200 nM; GI50 (HT29; Homo sapiens, HT-29): 2440 nM; CC50 (HT29; Homo sapiens, HT-29, HT29, five dose 0.01–100 µM, read-out: LC50 (the source's name)): > 1000 nM; GI50 (SF-268; Homo sapiens): 1590 nM; CC50 (SF-268; [4]): 6230 nM; TGI (SF-268; five dose 0.01–100 µM): 3150 nM; GI50 (SF-295; Homo sapiens): 1710 nM; CC50 (SF-295; [4]): 5800 nM; TGI (SF-295; five dose 0.01–100 µM): 3150 nM; GI50 (SF-539; Homo sapiens): 1630 nM; LC50 (concentration killing 50% of cells) (SF-539; [3]): 6100 nM; TGI (SF-539; five dose 0.01–100 µM): 3150 nM; GI50 (SNB-19; Homo sapiens, SNB-19): 2110 nM; inhibition at 10 µM (SNB-19; Homo sapiens, SNB-19, read-out: Percent growth inhibition): 93.4%; TGI (SNB-19; SNB-19, five dose 0.01–100 µM): 4950 nM; GI50 (SNB-75; Homo sapiens): 1390 nM; LC50 (SNB-75; [3]): 6770 nM; TGI (SNB-75; five dose 0.01–100 µM): 3070 nM; GI50 (U251; Homo sapiens, U-251): 1910 nM; CC50 (U251; Homo sapiens, U-251, U251, five dose 0.01–100 µM, read-out: LC50 (the source's name)): 6980 nM; TGI (U251; U251, five dose 0.01–100 µM): 3650 nM; GI50 (MALME-3M; Homo sapiens, Malme-3M): 2110 nM; CC50 (MALME-3M; Homo sapiens, MALME-3M, five dose 0.01–100 µM, read-out: LC50 (the source's name)): 6680 nM; TGI (MALME-3M; MALME-3M, five dose 0.01–100 µM): 3750 nM; GI50 (MDA-MB-435; Homo sapiens): 1770 nM; CC50 (MDA-MB-435; [4]): 7110 nM; TGI (MDA-MB-435; five dose 0.01–100 µM): 3550 nM; GI50 (SK-MEL-28; Homo sapiens): 1810 nM; CC50 (SK-MEL-28; [4]): 6430 nM; TGI (SK-MEL-28; five dose 0.01–100 µM): 3410 nM; GI50 (SK-MEL-2; Homo sapiens): 1740 nM; CC50 (SK-MEL-2; [4]): 6450 nM; TGI (SK-MEL-2; five dose 0.01–100 µM): 3350 nM; GI50 (SK-MEL-5; Homo sapiens): 1490 nM; CC50 (SK-MEL-5; [4]): 5390 nM; TGI (SK-MEL-5; five dose 0.01–100 µM): 2830 nM; GI50 (UACC-257; Homo sapiens): 2100 nM; LC50 (UACC-257; [3]): 6240 nM; TGI (UACC-257; five dose 0.01–100 µM): 3620 nM; GI50 ([1]; Homo sapiens, read-out: Full panel mean-graph midpoint (MG-MID) GI50): 2120 nM; GI50 ([1]; Homo sapiens, read-out: GI50 range over nine panels of cell lines): 800 to 2870 nM; CC50 ([1]; Homo sapiens, average over all cancer cell lines, five dose, read-out: Full panel mean-graph midpoint (MG-MID) LC50): 6630 nM; Full panel mean-graph midpoint (MG-MID) TGI ([1]; average over all cancer cell lines, five dose): 4730 nM; number of cell lines with cytostatic effect ([1]; single dose 10 µM): 8; number of cell lines with cytotoxic effect ([1]; single dose 10 µM): 51; Ksv (Stern-Volmer constant) (CT-DNA; CT-DNA, pH 7.4, 298 K): 9300 M⁻¹; Kq (apparent bimolecular quenching constant) (CT-DNA; CT-DNA, τo = 10^−8 s): 9.3e+11 M⁻¹ s⁻¹; Kbin (CT-DNA; CT-DNA, Scatchard): 95800 M⁻¹; binding constant (Kbin) (CT-DNA; CT-DNA, Scatchard): 95800 M⁻¹; n (number of binding sites) (CT-DNA; CT-DNA, Scatchard): 1.21; KSV (CT-DNA; CT-DNA, Stern-Volmer constant): 9300 M⁻¹; Kq (CT-DNA; CT-DNA, apparent bimolecular quenching constant): 9.3e+11 M⁻¹ s⁻¹; quenching of fluorescence intensity (CT-DNA; compound 5 µM, CT-DNA 0–50 µM): 75%; Stern-Volmer quenching constant (Ksv) ([2]; BSA): 104000 M⁻¹; apparent bimolecular quenching constant (Kq) ([2]; BSA): 1.04e+13 M⁻¹ s⁻¹; quenching of BSA emission band at 350 nm ([2]; BSA 10 µM, compound 0–16 µM): up to 70%; Kbin ([2]; BSA, Scatchard): 47000 M⁻¹; n (number of binding sites) ([2]; BSA, Scatchard): 0.92; Kd ([2]; BSA, Scatchard, read-out: binding constant (Kbin) (converted)): 21300 nM; KSV ([2]; BSA, Stern-Volmer constant): 104000 M⁻¹; Kq ([2]; BSA, apparent bimolecular quenching constant): 1.04e+13 M⁻¹ s⁻¹
